Source: PMC6120666 (The EMBO Journal, 2018)

Legend:
Test in all cases: Drug affinity chromatography with c-ponatinib and LC-MS/MS (ponatinib interactome)
Format in all cases: binding
[1] = biological target: T1, proteins of U2OS cell lysate (Homo sapiens, UniProt O95292); conditions: VAPB, Vesicle-associated membrane protein-associated protein B/C
T1 construct: Proteins enriched by c-ponatinib from U2OS cell lysate; endogenous in cells; host or cells: U2OS cell lysate
Summary of the method: (§1)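 Proteins were identified by nano-UPLC–MS/MS after elution with formic acid and trypsin digestion. They were captured from U2OS lysate (2 mg protein per pulldown, NP-40 buffer) on amine-coupled NHS beads during a 2 h incubation at 4 °C.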

[2] = biological target: T2, proteins of U2OS cell lysate (Homo sapiens, UniProt P05388); conditions: RPLP0;RPLP0P6, 60S acidic ribosomal protein P0
T2 construct: Proteins enriched by c-ponatinib from U2OS cell lysate; endogenous in cells; host or cells: U2OS cell lysate
Summary of the method: as §1

[3] = biological target: T3, proteins of U2OS cell lysate (Homo sapiens, UniProt P11441); conditions: UBL4A, Ubiquitin-like protein 4A
T3 construct: Proteins enriched by c-ponatinib from U2OS cell lysate; endogenous in cells; host or cells: U2OS cell lysate
T3 sequence (P11441 whole entry): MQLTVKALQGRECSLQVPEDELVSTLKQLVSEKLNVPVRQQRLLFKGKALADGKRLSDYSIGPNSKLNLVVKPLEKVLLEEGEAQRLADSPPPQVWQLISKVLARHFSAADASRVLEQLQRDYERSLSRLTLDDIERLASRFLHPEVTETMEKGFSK
Summary of the method: as §1

[4] = biological target: T4, proteins of U2OS cell lysate (Homo sapiens, UniProt P34932); conditions: HSPA4, Heat shock 70 kDa protein 4
T4 construct: Proteins enriched by c-ponatinib from U2OS cell lysate; endogenous in cells; host or cells: U2OS cell lysate
T4 sequence (P34932 whole entry): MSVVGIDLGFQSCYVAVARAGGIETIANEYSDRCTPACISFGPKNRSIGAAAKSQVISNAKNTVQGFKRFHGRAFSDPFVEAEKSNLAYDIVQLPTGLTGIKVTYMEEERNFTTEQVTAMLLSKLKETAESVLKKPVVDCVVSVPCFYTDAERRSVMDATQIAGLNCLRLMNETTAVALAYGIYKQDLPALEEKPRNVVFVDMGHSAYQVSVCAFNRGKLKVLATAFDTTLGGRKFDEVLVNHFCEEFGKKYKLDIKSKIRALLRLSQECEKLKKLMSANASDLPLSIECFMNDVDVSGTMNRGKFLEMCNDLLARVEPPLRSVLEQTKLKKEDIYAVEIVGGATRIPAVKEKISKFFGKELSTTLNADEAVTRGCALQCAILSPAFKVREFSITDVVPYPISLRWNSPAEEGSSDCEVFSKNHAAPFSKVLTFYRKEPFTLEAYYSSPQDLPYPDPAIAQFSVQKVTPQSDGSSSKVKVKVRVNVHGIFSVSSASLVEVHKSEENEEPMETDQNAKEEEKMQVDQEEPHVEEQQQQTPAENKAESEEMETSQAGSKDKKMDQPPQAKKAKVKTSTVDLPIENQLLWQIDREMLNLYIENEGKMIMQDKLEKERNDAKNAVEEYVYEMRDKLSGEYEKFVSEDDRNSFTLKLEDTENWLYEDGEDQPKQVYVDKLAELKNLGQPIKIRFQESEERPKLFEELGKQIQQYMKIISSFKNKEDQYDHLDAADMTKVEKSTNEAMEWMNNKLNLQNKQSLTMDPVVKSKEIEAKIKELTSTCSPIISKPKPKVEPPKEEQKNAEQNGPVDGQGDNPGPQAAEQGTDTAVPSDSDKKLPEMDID
Summary of the method: as §1

[5] = biological target: T5, proteins of U2OS cell lysate (Homo sapiens, UniProt P54753); conditions: EPHB3, Ephrin type-B receptor 3
T5 construct: Proteins enriched by c-ponatinib from U2OS cell lysate; endogenous in cells; host or cells: U2OS cell lysate
T5 sequence (P54753 34-998): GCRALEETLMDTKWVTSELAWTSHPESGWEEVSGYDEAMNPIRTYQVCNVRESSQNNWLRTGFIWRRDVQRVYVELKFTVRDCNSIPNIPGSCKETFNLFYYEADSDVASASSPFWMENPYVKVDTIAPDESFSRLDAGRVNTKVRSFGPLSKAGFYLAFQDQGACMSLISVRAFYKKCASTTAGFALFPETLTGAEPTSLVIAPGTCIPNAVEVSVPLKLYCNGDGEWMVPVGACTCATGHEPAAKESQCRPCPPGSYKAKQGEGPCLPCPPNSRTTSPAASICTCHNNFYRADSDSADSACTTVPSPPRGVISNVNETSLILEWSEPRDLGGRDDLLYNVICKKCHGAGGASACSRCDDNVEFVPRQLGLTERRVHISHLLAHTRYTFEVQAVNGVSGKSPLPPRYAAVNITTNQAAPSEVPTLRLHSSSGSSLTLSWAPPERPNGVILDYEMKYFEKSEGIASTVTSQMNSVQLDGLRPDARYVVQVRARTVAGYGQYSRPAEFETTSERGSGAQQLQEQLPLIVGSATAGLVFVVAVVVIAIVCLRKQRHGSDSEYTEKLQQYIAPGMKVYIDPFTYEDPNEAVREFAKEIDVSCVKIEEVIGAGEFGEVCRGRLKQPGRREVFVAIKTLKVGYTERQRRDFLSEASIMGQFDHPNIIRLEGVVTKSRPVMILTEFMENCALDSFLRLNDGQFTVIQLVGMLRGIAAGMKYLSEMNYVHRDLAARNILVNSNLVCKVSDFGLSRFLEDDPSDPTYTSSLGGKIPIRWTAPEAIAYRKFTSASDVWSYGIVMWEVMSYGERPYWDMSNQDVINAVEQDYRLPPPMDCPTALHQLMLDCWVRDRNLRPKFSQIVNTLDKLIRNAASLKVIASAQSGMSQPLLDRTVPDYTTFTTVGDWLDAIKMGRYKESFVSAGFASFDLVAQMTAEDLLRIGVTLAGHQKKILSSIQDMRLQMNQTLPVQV
Summary of the method: as §1

[6] = biological target: T6, proteins of U2OS cell lysate (Homo sapiens, UniProt P54760); conditions: EPHB4, Ephrin type-B receptor 4
T6 construct: Proteins enriched by c-ponatinib from U2OS cell lysate; endogenous in cells; host or cells: U2OS cell lysate
Summary of the method: as §1

[7] = biological target: T7, proteins of U2OS cell lysate (Homo sapiens, UniProt P57678); conditions: GEMIN4, Gem-associated protein 4
T7 construct: Proteins enriched by c-ponatinib from U2OS cell lysate; endogenous in cells; host or cells: U2OS cell lysate
Summary of the method: as §1

[8] = biological target: T8, proteins of U2OS cell lysate (Homo sapiens, UniProt P62191); conditions: PSMC1, 26S protease regulatory subunit 4
T8 construct: Proteins enriched by c-ponatinib from U2OS cell lysate; endogenous in cells; host or cells: U2OS cell lysate
Summary of the method: as §1

[9] = biological target: T9, proteins of U2OS cell lysate (Homo sapiens, UniProt P62714); conditions: PPP2CB, Serine/threonine-protein phosphatase 2A catalytic subunit beta isoform
T9 construct: Proteins enriched by c-ponatinib from U2OS cell lysate; endogenous in cells; host or cells: U2OS cell lysate
T9 sequence (P62714 whole entry, canonical isoform): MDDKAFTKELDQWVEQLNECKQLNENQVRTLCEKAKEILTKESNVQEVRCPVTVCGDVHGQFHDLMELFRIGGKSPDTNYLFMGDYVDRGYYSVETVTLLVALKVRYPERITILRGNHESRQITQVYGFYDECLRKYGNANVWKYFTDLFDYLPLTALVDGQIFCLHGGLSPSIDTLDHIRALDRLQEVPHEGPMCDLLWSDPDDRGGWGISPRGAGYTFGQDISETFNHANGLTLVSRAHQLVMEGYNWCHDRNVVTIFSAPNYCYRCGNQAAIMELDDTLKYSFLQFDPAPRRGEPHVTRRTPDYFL
Summary of the method: as §1

[10] = biological target: T10, proteins of U2OS cell lysate (Homo sapiens, UniProt Q13268); conditions: DHRS2, Dehydrogenase/reductase SDR family member 2, mitochondrial
T10 construct: Proteins enriched by c-ponatinib from U2OS cell lysate; endogenous in cells; host or cells: U2OS cell lysate
T10 sequence (Q13268 24-280): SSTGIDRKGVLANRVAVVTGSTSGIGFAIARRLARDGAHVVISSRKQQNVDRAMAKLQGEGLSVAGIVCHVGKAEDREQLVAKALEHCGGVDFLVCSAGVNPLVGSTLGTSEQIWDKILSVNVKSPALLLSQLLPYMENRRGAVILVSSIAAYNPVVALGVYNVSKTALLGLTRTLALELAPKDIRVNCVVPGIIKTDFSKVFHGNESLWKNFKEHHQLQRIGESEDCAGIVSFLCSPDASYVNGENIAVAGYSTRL
Summary of the method: as §1

[11] = biological target: T11, proteins of U2OS cell lysate (Homo sapiens, UniProt Q13813); conditions: SPTAN1, Spectrin alpha chain, non-erythrocytic 1
T11 construct: Proteins enriched by c-ponatinib from U2OS cell lysate; endogenous in cells; host or cells: U2OS cell lysate
Summary of the method: as §1

[12] = biological target: T12, proteins of U2OS cell lysate (Homo sapiens, UniProt Q14974); conditions: KPNB1, Importin subunit beta-1
T12 construct: Proteins enriched by c-ponatinib from U2OS cell lysate; endogenous in cells; host or cells: U2OS cell lysate
T12 sequence (Q14974 whole entry): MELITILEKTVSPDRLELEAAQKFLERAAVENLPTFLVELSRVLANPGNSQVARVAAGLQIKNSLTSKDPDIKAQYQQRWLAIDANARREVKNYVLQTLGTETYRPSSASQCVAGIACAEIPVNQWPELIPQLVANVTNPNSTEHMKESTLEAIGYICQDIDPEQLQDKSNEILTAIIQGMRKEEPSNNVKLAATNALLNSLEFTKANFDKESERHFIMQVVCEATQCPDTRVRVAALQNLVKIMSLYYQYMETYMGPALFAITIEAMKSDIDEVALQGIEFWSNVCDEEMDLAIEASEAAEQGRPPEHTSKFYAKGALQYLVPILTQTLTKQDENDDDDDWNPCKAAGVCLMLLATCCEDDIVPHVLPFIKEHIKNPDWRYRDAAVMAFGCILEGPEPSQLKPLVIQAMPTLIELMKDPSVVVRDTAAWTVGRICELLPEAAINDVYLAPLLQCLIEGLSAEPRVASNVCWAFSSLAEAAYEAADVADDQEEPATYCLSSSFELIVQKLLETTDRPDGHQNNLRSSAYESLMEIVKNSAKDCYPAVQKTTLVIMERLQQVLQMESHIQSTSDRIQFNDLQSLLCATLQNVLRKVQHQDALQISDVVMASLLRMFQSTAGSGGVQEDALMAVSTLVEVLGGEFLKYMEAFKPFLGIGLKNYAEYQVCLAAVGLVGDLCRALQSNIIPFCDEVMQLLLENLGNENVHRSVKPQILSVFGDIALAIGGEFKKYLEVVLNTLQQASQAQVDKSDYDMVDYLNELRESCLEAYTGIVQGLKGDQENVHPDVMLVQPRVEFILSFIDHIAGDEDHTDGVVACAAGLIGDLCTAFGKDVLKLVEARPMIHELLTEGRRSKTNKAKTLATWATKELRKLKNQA
Summary of the method: as §1

[13] = biological target: T13, proteins of U2OS cell lysate (Homo sapiens, UniProt Q15750); conditions: TAB1, TGF-beta-activated kinase 1 and MAP3K7-binding protein 1
T13 construct: Proteins enriched by c-ponatinib from U2OS cell lysate; endogenous in cells; host or cells: U2OS cell lysate
Summary of the method: as §1

[14] = biological target: T14, proteins of U2OS cell lysate (Homo sapiens, UniProt Q99623); conditions: PHB2, Prohibitin-2
T14 construct: Proteins enriched by c-ponatinib from U2OS cell lysate; endogenous in cells; host or cells: U2OS cell lysate
Summary of the method: as §1

[15] = biological target: T15, proteins of U2OS cell lysate (Homo sapiens, UniProt Q9NYJ8); conditions: TAB2, TGF-beta-activated kinase 1 and MAP3K7-binding protein 2
T15 construct: Proteins enriched by c-ponatinib from U2OS cell lysate; endogenous in cells; host or cells: U2OS cell lysate
Summary of the method: as §1

[16] = biological target: T16, proteins of U2OS cell lysate (Homo sapiens, UniProt Q9Y2D5); conditions: AKAP2, A-kinase anchor protein 2
T16 construct: Proteins enriched by c-ponatinib from U2OS cell lysate; endogenous in cells; host or cells: U2OS cell lysate
T16 sequence (Q9Y2D5 whole entry): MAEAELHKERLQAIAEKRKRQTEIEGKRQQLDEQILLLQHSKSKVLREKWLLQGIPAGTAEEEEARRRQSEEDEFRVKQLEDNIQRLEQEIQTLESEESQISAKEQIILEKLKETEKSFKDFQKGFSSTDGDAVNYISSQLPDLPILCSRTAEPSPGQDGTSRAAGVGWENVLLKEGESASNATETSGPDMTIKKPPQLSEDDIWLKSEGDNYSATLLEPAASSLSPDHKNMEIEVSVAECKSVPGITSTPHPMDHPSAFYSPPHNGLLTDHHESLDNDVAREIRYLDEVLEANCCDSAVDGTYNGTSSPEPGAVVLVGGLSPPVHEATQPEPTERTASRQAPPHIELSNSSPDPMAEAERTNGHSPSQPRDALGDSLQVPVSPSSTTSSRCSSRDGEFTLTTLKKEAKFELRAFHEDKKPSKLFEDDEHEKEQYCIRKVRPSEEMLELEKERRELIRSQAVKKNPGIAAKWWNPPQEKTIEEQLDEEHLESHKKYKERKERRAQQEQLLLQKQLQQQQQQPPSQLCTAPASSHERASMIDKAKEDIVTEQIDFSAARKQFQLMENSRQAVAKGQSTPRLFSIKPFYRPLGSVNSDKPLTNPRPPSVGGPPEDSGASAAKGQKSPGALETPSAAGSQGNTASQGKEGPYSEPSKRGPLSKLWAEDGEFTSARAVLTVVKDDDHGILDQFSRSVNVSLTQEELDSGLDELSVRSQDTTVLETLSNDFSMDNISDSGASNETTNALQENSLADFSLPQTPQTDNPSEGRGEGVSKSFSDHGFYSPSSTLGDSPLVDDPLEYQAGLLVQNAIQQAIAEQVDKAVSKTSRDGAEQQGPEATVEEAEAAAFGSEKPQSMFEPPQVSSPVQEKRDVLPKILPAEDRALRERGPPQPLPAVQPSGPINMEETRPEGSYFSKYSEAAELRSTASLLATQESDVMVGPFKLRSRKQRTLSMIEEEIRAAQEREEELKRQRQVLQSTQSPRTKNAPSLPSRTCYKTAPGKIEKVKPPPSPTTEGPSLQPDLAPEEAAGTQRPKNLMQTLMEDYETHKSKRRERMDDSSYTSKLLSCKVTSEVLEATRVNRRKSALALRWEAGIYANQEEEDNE
Summary of the method: as §1

[17] = biological target: T17, proteins of U2OS cell lysate (Homo sapiens, UniProt Q9Y6G9); conditions: DYNC1LI1, Cytoplasmic dynein 1 light intermediate chain 1
T17 construct: Proteins enriched by c-ponatinib from U2OS cell lysate; endogenous in cells; host or cells: U2OS cell lysate
Summary of the method: as §1

[18] = biological target: T18, proteins of U2OS cell lysate (Homo sapiens, UniProt P20674); conditions: captured protein COX5A, Rank 122
T18 construct: Proteins enriched by c-ponatinib from U2OS cell lysate; endogenous in cells; host or cells: U2OS cell lysate
T18 sequence (P20674 42-150): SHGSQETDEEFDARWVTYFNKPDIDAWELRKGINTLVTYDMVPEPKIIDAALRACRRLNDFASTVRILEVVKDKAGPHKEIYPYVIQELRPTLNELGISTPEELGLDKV
Summary of the method: as §1

T1 sequence (O95292 whole entry): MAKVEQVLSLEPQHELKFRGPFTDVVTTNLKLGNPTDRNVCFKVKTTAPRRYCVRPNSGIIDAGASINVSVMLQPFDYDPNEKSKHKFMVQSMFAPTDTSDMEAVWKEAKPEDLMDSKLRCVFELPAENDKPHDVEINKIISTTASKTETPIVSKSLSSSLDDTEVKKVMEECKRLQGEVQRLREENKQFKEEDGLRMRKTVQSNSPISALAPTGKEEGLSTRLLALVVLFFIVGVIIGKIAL

Row | Structure (SMILES) | Average LFQ PON_WT [1] | Average LFQ PON_WT [2] | Average LFQ PON_WT [3] | Average LFQ PON_WT [4] | Average LFQ PON_WT [5] | Average LFQ PON_WT [6] | Average LFQ PON_WT [7] | Average LFQ PON_WT [8] | Average LFQ PON_WT [9] | Average LFQ PON_WT [10] | Average LFQ PON_WT [11] | Average LFQ PON_WT [12] | Average LFQ PON_WT [13] | Average LFQ PON_WT [14] | Average LFQ PON_WT [15] | Average LFQ PON_WT [16] | Average LFQ PON_WT [17] | Average LFQ intensity [18]
1 | Cc1ccc(C(=O)Nc2ccc(CN3CCN(C)CC3)c(C(F)(F)F)c2)cc1C#Cc1cnc2cccnn12 [PON] | 20.7048 | 20.5709 | 20.3097 | 24.3032 | 21.3076 | 25.577 | 20.1071 | 23.3461 | 21.415 | 24.0178 | 24.813 | 23.6067 | 26.3342 | 28.7804 | 24.3605 | 19.1683 | 23.2986 | 
2 | Cc1ccc(C(=O)Nc2ccc(CN3CCN(CCCN)CC3)c(C(F)(F)F)c2)cc1C#Cc1cnc2cccnn12 [c-ponatinib, reference compound] |  |  |  |  |  |  |  |  |  |  |  |  |  |  |  |  |  | 23.049
